Read-outs that look alike come from different tables or passages of the source.
Experiments:
Format in all cases: physicochemical
[1] = Solubility of free fatty acids in histidine acetate buffer pH 5.5, visible particles by Seidenader; conditions: kinetic from dmso stock
Method: In brief, lauric acid (“LA”. Sigma-Aldrich/Merck, Darmstadt, DE) and myristic acid (“MA”, Sigma-Aldrich/Merck, Darmstadt, DE) were suspended in PS20 HP (Croda, Edison, N.J., USA) and stirred (150 rpm) for 30 min at 60° C. until both FFAs were fully dissolved. Solutions were diluted 1:5 with pre-warmed (60° C.) water for injection (WFI) and immediately filtered through 0.22 μm PVDF Steriflip filters (Merck Millipore, Darmstadt, DE). The concentration of LA and MA in FFA stock solutions was verified by LC-MS as described by Honemann et al. (Honemann et al. 2019) LA/MA/PS20 stock solutions were spiked into 20 mM histidine acetate buffer pH 5.5 (1:500 dilution, n=3) and homogenized on a MaxQ™ 4000 Benchtop Orbital Shaker (Thermo Scientific™, Waltham, Mass., USA) for 1 hour at 25° C. Samples were stored at 5° C. and analyzed for visible particles after 0, 1, 7 and 28 days using a black/white panel according Ph. Eur. 2.9.20 (European Directorate for the Quality of Medicines) and a Seidenader V 90-T instrument (Seidenader Maschinenbau GmbH, Markt Schwaben, DE). […]
Free fatty acid (FFA) stock solutions of lauric acid (LA) and myristic acid (MA) were spiked into 20 mM histidine acetate buffer pH 5.5 (n=3). Samples were analyzed for the presence of visible particles after incubation at 2-8° C. for 0, 1 day, 7 days and 28 days using the (A) Seidenader and (B) E/P box.

[2] = FFA particle nucleation by DLS: interaction of bi- and trivalent cations with lauric acid; conditions: for FFA salt particle formation and growth (DLS): metal ion 0-30 μM, 70 hours, 5° C.
Method: DLS experiments were performed on DynaPro(R) plate reader (Wyatt, Santa Barbara, Calif.). The DLS plate reader is flushed with nitrogen 5 hours before commencing the measurements and cooled down to 5° C. during the entire duration of the measurements. 200 μL of sample solutions comprising of 20 μg lauric acid (LA) in 20 mM L-Histidine buffer at pH 6.0 supplemented with 6% v/v DMSO, and varying amounts of metal ions (Al^3+, Fe^3, Zn^2+, Mg^2+, Ca^2+, Ni^2+) were mixed in the cuvettes of black glass bottom 96 well plates (Greiner Bio-One GmbH, Frickenhausen, Germany). FFA nucleation and particle growth were measured over 40-70 hours using a 633 nm laser and a backscatter detection system at 158°. The hydrodynamic particle radius (rH) was determined by fitting a cumulant fit to the obtained auto-correlation function. […] The laser power was adjusted before each measurement sequence and kept constant during the entire measurement. The attenuation level was set to zero for all measurements in order to collect the maximum amount of scattered light. Aluminium (Al), Iron (Fe), Zink (Zn), Magnesium (Mg), Calcium (Ca) and Nickel (Ni) stock solutions were prepared at 4 mM in Milli-Q water pH 2.5 from their respective salts and stored at 2-8° C. until used. Diluted sample solutions (100×) were freshly prepared in Milli-Q water pH 2.5. The DLS assay buffer was added to the salt sample solutions to attain metal ion target concentrations of 0, 1, 3, 10 and 30 μM. Particles size (rH) and intensity were measured over a period of 70 h as described above.

[3] = FFA metal nucleation by DLS in presence of DTPA and real glass leachables; conditions: lauric acid and real glass leachables
Method: (§1) DLS experiments were performed on DynaPro(R) plate reader (Wyatt, Santa Barbara, Calif.). The DLS plate reader is flushed with nitrogen 5 hours before commencing the measurements and cooled down to 5° C. during the entire duration of the measurements. 200 μL of sample solutions comprising of 20 μg lauric acid (LA) in 20 mM L-Histidine buffer at pH 6.0 supplemented with 6% v/v DMSO, and varying amounts of metal ions (Al^3+, Fe^3, Zn^2+, Mg^2+, Ca^2+, Ni^2+) were mixed in the cuvettes of black glass bottom 96 well plates (Greiner Bio-One GmbH, Frickenhausen, Germany). FFA nucleation and particle growth were measured over 40-70 hours using a 633 nm laser and a backscatter detection system at 158°. The hydrodynamic particle radius (rH) was determined by fitting a cumulant fit to the obtained auto-correlation function. The lower and upper boundary for the cumulant fit was set to lag times τ of 10 μs and 1000 μs respectively. The laser power was adjusted before each measurement sequence and kept constant during the entire measurement. The attenuation level was set to zero for all measurements in order to collect the maximum amount of scattered light.
Representative glass leachables solutions were prepared according to a procedure disclosed in Allmendinger et al. (Allmendinger et al. 2021). […]

[4] = FFA metal nucleation by DLS in presence of DTPA, Fe nucleation study
Method: as §1
For the Al nucleation study, a metal ion target concentration of 2 μM was used. […] For the Fe nucleation study, the target concentration of Fe was 4 μM. The final concentration of DTPA was either 0, 0.04, 0.4, 2.0, 4.0 or 40 μM resulting in molar ratios (DTPA:Fe) of 0, 0.01, 0.1, 0.5, 1.0 and 10, respectively. DLS measurements were conducted over 50 hours at 5° C. as described above.

[5] = Spiking study with different PS20 and PS80 grades, aluminum and DTPA, visible particles by Seidenader (Table 11); conditions: DTPA, 250 ppb aluminum, independent of PS grade or enzyme
Method: (§2) Super refined (SR) PS20 and PS80, high purity (HP) PS20 and PS80, as well as pure oleic acid (POA) PS80 were enzymatically hydrolyzed by 10% using immobilized enzymes (Graf et al. 2020) (mucor miehei lipase (MML), Candida antarctica lipase (CAL) and Candida antarctica lipase B (CALB)). […] Diluted aluminum solutions comprising in 20 mM histidine acetate pH 5.5 were prepared as described above and filled into 20 mL type I borosilicate glass vials (Schott, Mainz, DE). Samples containing either 0 or 250 ppb of aluminum (Al^3) were spiked with different PS stock solutions (HP PS20, SR PS20, HP PS80, SR PS80, POA PS80; degradation level of 0 or 10%). In addition, samples containing 250 ppb aluminum were supplemented with 0.05 mM diethylenetriaminepentaacetic acid (DTPA) prior spiking with partially degraded PS. Vials were sealed with 20 mm teflonized injection stoppers (D777-1, Daikyo) and aluminum crimp caps and homogenized on a MaxQTM 4000 Benchtop Orbital Shaker (Thermo ScientificTM, Waltham, Mass., USA) for 1 hour at 25° C. […] Different grades of non-degraded polysorbate 20 and 80 served as negative controls. All samples were prepared in triplicates. Samples were stored at 5° C. and particle formation was assessed for up to 22 days by visual inspection using a black/white panel according Ph. Eur. 2.9.20. and enhanced visual inspection ([…] instrument) as described above.

[6] = Spiking study with different PS20 and PS80 grades, aluminum and DTPA, visible particles by E/P (Table 10); conditions: 50 μM DTPA, 250 ppb aluminum, all grades of PS
Method: as §2

[7] = Spiking study with partially degraded polysorbate 20 and aluminum, visible particles by E/P box; conditions: 0.05 mM DTPA or 0.005% (w/v) EDTA; 250 ppb aluminum; partially degraded polysorbate below the solubility limit
Method: Diluted aluminum solutions comprising in 20 mM histidine acetate pH 5.5 were prepared as described above and filled into 20 mL type I borosilicate glass vials (Schott, Mainz, DE). […] Vials were sealed with 20 mm teflonized injection stoppers (D777-1, Daikyo) and aluminum crimp caps and homogenized on a MaxQ™ 4000 Benchtop Orbital Shaker (Thermo Scientific™, Waltham, Mass., USA) for 1 hour at 25° C.
PS20-Std only comprised non-degraded polysorbate 20 and was used for the preparation of negative controls. All samples were prepared in triplicates.
Samples were stored at 5° C. and particle formation was assessed for up to 28 days by visual inspection using a black/white panel according Ph.
Samples were visually inspected (E/P box) for the presence of visible particles after incubation for 0, 1 day, 7 days and 28 days at 2-8° C.

[8] = Spiking study with free fatty acids and aluminum, visible particles by Seidenader (Table 4A); conditions: Seidenader results
Method: A 100 ppm aluminum stock solution was prepared from aluminum chloride hexahydrate in 20 mM histidine acetate pH 5.5. The actual concentration of aluminum was determined by inductively-coupled plasma mass spectrometry (ICP-MS). This stock solution was then diluted to 10 ppm Al^3+ and sterile-filtered through a 0.22 μm porosity filter cartridge (Sterivex-GV, Millipore).
All vials were sealed with 20 mm teflonized injection stoppers (D777-1, Daikyo) and aluminum crimp caps and homogenized on a MaxQ™ 4000 Benchtop Orbital Shaker (Thermo Scientific™, Waltham, Mass., USA) for 1 hour at 25° C.
LAMA-10 only comprised polysorbate 20 and was used for the preparation of negative controls. All samples were prepared in triplicates.
Samples were stored at 5° C. and the formation of visible particles was assessed for up to 28 days using a black/white and a Seidenader V 90-T instrument (Seidenader Maschinenbau GmbH, Markt Schwaben, DE) as described above.
Samples were analyzed for the presence of visible particles after storage at 2-8° C. for 0, 1 day, 7 days and 28 days using the (A) Seidenader and (B) E/P box.

[9] = FFA particle nucleation by DLS: impact of aluminum concentration on particle kinetics; conditions: 20 ppb Al; 5° C.; not captured in the 40 hours experiment
Method: as §1, with “The lower and upper boundary for the cumulant fit was set to lag times τ of 10 μs and 1000 μs respectively. The laser power was adjusted before each measurement sequence and kept constant during the entire measurement. The attenuation level was set to zero for all measurements in order to collect the maximum amount of scattered light.” left out
Al sample solutions (100×) in 20 mM Histidine buffer pH 6.0 were prepared from a sterile 50 ppm Al stock solution (20 mM Glycine pH 2.5) and were spiked into the DLS assay buffer at target concentrations of 0, 20, 40, 60 and 100 ppb Al. Particle nucleation and growth was measured over a period of 40 hours as described above.
Quantitative analysis was performed by analyzing the intensity of the scattered laser light of the FFA particles over time by fitting a sigmoidal Boltzmann function to the growth curves. […]

SMILES: CCCCCCCCCCCC(=O)O [lauric acid]
- solubility at 28 days ([1]; 20 mM histidine acetate buffer with 0.04% PS20, 5 °C, aqueous with cosolvent or surfactant or cyclodextrin, lauric and myristic acid together, histidine acetate buffer pH 5.5, 0.04% PS20, 2-8° C., 28 days, Seidenader and E/P box, read-out: Solubility limit (concentration at which free fatty acids exceeded the solubility limit)): < 12.5 µg/mL

SMILES: [Fe+3] [Fe]
- Hydrodynamic particle radius rH ([2]; instant particle formation, no further increase over time): 50-60 nm
- FFA salt particle formation and growth (DLS) [2]: particle formation and growth

SMILES: O=C(O)CN(CCN(CC(=O)O)CC(=O)O)CCN(CC(=O)O)CC(=O)O [DTPA, Diethylenetriaminepentaacetic acid]
- Molar ratio of chelator to Al efficient in mitigating particle formation [3]: at least 1.5
- Particle radius ([4]; DTPA to Fe ratio of 0.5): only slightly changed
- Scattering intensity ([4]; DTPA to Fe ratio of 0.5): significantly decreased
- Particle formation and growth (DLS) ([4]; equimolar amounts of DTPA, lauric acid and 4 μM Fe): complete suppression
- Particle formation in presence of the chelator [5]: significantly mitigated
- Visible particles in presence of the chelator [6]: no particles were observed
- Formation of visible FFA particles on addition of chelator [7]: successfully prevented

SMILES: [Ni+2] [Ni]
- FFA salt particle formation and growth (DLS) [2]: did not lead to FFA salt particle formation or growth

SMILES: [Ca+2] [Ca]
- FFA salt particle formation and growth (DLS) [2]: did not lead to FFA salt particle formation or growth

SMILES: CCCCCCCCCCCCCC(=O)O [myristic acid]
- solubility at 28 days ([1]; 5 °C, pH 5.5, aqueous with cosolvent or surfactant or cyclodextrin): < 5 µg/mL

SMILES: [Mg+2] [Mg]
- FFA salt particle formation and growth (DLS) [2]: did not lead to FFA salt particle formation or growth

SMILES: [Al+3] [Al]
- Trace amount of aluminum sufficient to complex free fatty acids and form visible particles [8]: 10 ppb
- Inflection point of the sigmoidal curve fit of scattering intensity [9]: around 65 hours
- FFA salt particle formation and growth (DLS) [2]: particle formation and growth

SMILES: [Zn+2] [Zn]
- FFA salt particle formation and growth (DLS) [2]: did not lead to FFA salt particle formation or growth

From patent US20230233684A1, “USE OF CHELATORS FOR THE PREVENTION OF VISIBLE PARTICLE FORMATION IN PARENTERAL PROTEIN SOLUTIONS” (Hoffmann-La Roche Inc., priority 2020, published 2023)
